# Assays:
# Experiment in all cases: relative viability (nuclei count vs DMSO), 5 days (fraction); higher = more cells survive
# [1] = compound: CC1=CC(=NN1)NC2=CC(=NC(=N2)/C=C/C3=CC=CC=C3)N4CCN(CC4)C + C[C@@H](Oc1cc(-c2cnn(C3CCNCC3)c2)cnc1N)c1c(Cl)ccc(F)c1Cl [Crizotinib] (partner 1 µM)
# Procedure, shortened: (§1)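 Lung cancer cell lines were pin-tool dosed in 1536-well plates on the day after seeding, with either a lone drug or a fixed anchor-drug dose plus five library-drug doses (not always all listed) in √10 steps. Nuclei were counted on 4× images after 5 days. Relative viability is the ratio of treated-well to vehicle-well nuclei counts, with each value a median of duplicate plates.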
# Obatoclax + Pemetrexed = compound: COC1=CC(c2cc3ccccc3[nH]2)=N/C1=C\c1[nH]c(C)cc1C [Obatoclax] + Nc1nc2[nH]cc(CCc3ccc(C(=O)N[C@@H](CCC(=O)O)C(=O)O)cc3)c2c(=O)[nH]1 [Pemetrexed] (partner 0.2 µM)
# Procedure, shortened: as §1
# Bortezomib + Pemetrexed = compound: CC(C)C[C@H](NC(=O)[C@H](Cc1ccccc1)NC(=O)c1cnccn1)B(O)O [Bortezomib] + Nc1nc2[nH]cc(CCc3ccc(C(=O)N[C@@H](CCC(=O)O)C(=O)O)cc3)c2c(=O)[nH]1 [Pemetrexed] (partner 0.2 µM)
# Procedure, shortened: as §1
# [2] = compound: CC1=CC(=NN1)NC2=CC(=NC(=N2)/C=C/C3=CC=CC=C3)N4CCN(CC4)C + Cc1cc(Nc2cc(N3CCN(C)CC3)nc(Sc3ccc(NC(=O)C4CC4)cc3)n2)n[nH]1 [Tozasertib] (partner 0.1 µM)
# Procedure, shortened: as §1
Cell Line,relative viability ([1]; first compound 0.08 µM),relative viability ([1]; first compound 0.253 µM),relative viability ([1]; first compound 0.8 µM),relative viability ([1]; first compound 2.53 µM),relative viability ([1]; first compound 8 µM),relative viability (Obatoclax + Pemetrexed; first compound 0.01 µM),relative viability (Obatoclax + Pemetrexed; first compound 0.03162 µM),relative viability (Obatoclax + Pemetrexed; first compound 0.1 µM),relative viability (Obatoclax + Pemetrexed; first compound 0.3162 µM),relative viability (Obatoclax + Pemetrexed; first compound 1 µM),relative viability (Bortezomib + Pemetrexed; first compound 0.0002 µM),relative viability (Bortezomib + Pemetrexed; first compound 0.000632 µM),relative viability (Bortezomib + Pemetrexed; first compound 0.002 µM),relative viability (Bortezomib + Pemetrexed; first compound 0.006325 µM),relative viability (Bortezomib + Pemetrexed; first compound 0.02 µM),relative viability ([2]; first compound 0.08 µM),relative viability ([2]; first compound 0.253 µM),relative viability ([2]; first compound 0.8 µM),relative viability ([2]; first compound 2.53 µM),relative viability ([2]; first compound 8 µM)
COR-L 105,0.897,0.731,0.445,0.222,0.191,1.13,1.01,1.15,1.27,0.584,1.03,1.12,1.13,0.494,0.303,0.372,0.304,0.348,0.248,0.246
LU99A,0.554,0.549,0.452,0.16,0.13,0.16,0.172,,0.183,0.18,0.158,0.167,0.198,0.174,0.169,0.325,0.259,0.262,0.175,0.141
H3255,0.731,0.936,0.943,0.74,0.192,0.54,0.51,0.498,0.471,0.597,0.6,0.603,0.479,0.378,0.344,0.79,0.71,0.374,0.513,0.297
NCI-H1734,0.632,0.722,0.522,0.331,0.123,0.419,0.427,0.359,0.415,0.364,0.419,0.407,0.451,0.178,0.114,0.256,0.238,0.239,0.227,0.157
NCI-H1915,0.868,0.92,0.869,0.593,0.248,0.486,0.496,0.482,0.535,0.517,0.496,0.475,0.494,0.396,0.0489,0.462,0.34,0.334,0.16,0.135
NCI-H2009,1.06,0.94,1.02,0.534,0.22,0.978,1.05,0.974,0.993,0.471,1.05,1.05,1.02,0.553,0.0697,0.656,0.73,0.663,0.368,0.217
NCI-H1651,0.839,0.911,0.808,0.738,0.482,0.591,0.439,0.528,0.373,0.603,0.603,0.618,0.565,0.594,0.362,0.678,0.658,0.661,0.296,0.177
HOP-62,0.985,0.963,0.979,0.706,0.229,0.279,0.377,0.329,0.424,0.358,0.257,0.321,0.445,0.223,0.0603,0.354,0.366,0.377,0.261,0.18
CAL-12T,0.825,0.54,0.291,0.11,0.0934,1.04,1.16,1.13,0.896,0.149,1.25,1.26,1.24,1.15,0.123,0.25,0.303,0.251,0.172,0.143
LCLC-103H,0.993,1.19,1.19,1.07,0.302,0.461,0.487,0.379,0.519,0.528,0.46,0.483,0.47,0.559,0.317,0.451,0.484,0.389,0.232,0.191
NCI-H3122,0.285,0.318,0.253,0.268,0.168,0.19,0.202,0.2,0.203,0.221,0.2,0.202,0.195,0.171,0.117,0.373,0.408,0.408,0.33,0.231
PC-14,0.831,1,0.872,0.494,0.0811,0.129,0.147,0.125,0.149,0.109,0.126,0.142,0.166,0.0636,0.078,0.634,0.619,0.55,0.359,0.0595
BEN,0.881,1.09,0.804,0.675,0.167,0.852,0.534,0.44,0.618,0.762,0.75,0.806,0.88,0.529,0.373,0.492,0.533,0.451,0.364,0.38
EPLC-272H,0.884,1.06,0.711,0.452,0.174,0.324,0.387,0.422,0.327,0.263,0.354,0.308,0.157,0.085,0.0797,0.34,0.203,0.273,0.113,0.122
LK-2,0.193,0.221,0.208,0.262,0.203,0.273,0.227,0.248,,0.317,0.285,0.324,0.221,0.365,0.28,0.187,0.153,0.165,0.171,0.171
ChaGo-K-1,1.1,1.07,1.13,0.484,0.267,0.243,0.252,0.261,0.265,0.274,0.265,0.238,0.249,0.267,0.192,0.222,0.227,0.217,0.195,0.172

Cell Line,relative viability ([1]; first compound 0.08 µM),relative viability ([1]; first compound 0.253 µM),relative viability ([1]; first compound 0.8 µM),relative viability ([1]; first compound 2.53 µM),relative viability ([1]; first compound 8 µM),relative viability (Obatoclax + Pemetrexed; first compound 0.01 µM),relative viability (Obatoclax + Pemetrexed; first compound 0.03162 µM),relative viability (Obatoclax + Pemetrexed; first compound 0.1 µM),relative viability (Obatoclax + Pemetrexed; first compound 0.3162 µM),relative viability (Obatoclax + Pemetrexed; first compound 1 µM),relative viability (Bortezomib + Pemetrexed; first compound 0.0002 µM),relative viability (Bortezomib + Pemetrexed; first compound 0.000632 µM),relative viability (Bortezomib + Pemetrexed; first compound 0.002 µM),relative viability (Bortezomib + Pemetrexed; first compound 0.006325 µM),relative viability (Bortezomib + Pemetrexed; first compound 0.02 µM),relative viability ([2]; first compound 0.08 µM),relative viability ([2]; first compound 0.253 µM),relative viability ([2]; first compound 0.8 µM),relative viability ([2]; first compound 2.53 µM),relative viability ([2]; first compound 8 µM)
UMC-11,0.519,0.528,0.41,0.0737,0.062,0.768,0.808,0.82,0.795,0.433,0.694,0.875,0.745,0.39,0.17,0.191,0.212,0.206,0.183,0.162
HCC-827,0.91,0.999,0.877,0.636,0.381,0.241,0.275,0.247,0.17,0.278,0.265,0.254,0.219,0.234,0.247,0.404,0.375,0.422,0.355,0.236
NCI-H1993,0.883,,0.739,0.551,0.526,0.593,0.544,0.727,0.545,0.346,0.701,0.585,0.627,0.395,0.391,0.553,0.524,0.577,0.485,0.52
NCI-H647,1.19,1.06,0.683,0.0821,0.0474,0.207,0.164,0.19,0.144,0.116,0.17,0.199,0.134,0.0326,0.0194,0.236,0.202,0.257,0.123,0.108
NCI-H460,0.948,0.839,0.159,0.0358,0.0091,0.0642,0.0576,0.0607,0.0693,0.0648,0.0729,0.0627,0.0658,0.0625,0.0303,0.371,0.394,0.313,0.0338,0.0166
EMC-BAC-2,0.788,0.721,0.566,0.296,0.0972,0.42,0.47,0.395,0.452,0.419,0.415,0.44,0.443,0.326,0.266,0.282,0.249,0.254,0.234,0.149
NCI-H23,0.559,0.603,0.439,0.181,0.108,0.665,0.636,0.717,0.561,0.468,0.556,,0.595,0.23,0.143,0.389,0.382,0.239,0.212,0.141
A-427,0.878,0.878,0.937,0.399,0.0861,0.95,0.965,0.74,0.909,0.75,0.914,0.971,0.968,0.235,0.182,0.212,0.136,0.178,0.0979,0.0938
NCI-H322M,0.97,0.866,0.817,0.447,0.128,0.683,0.609,0.632,0.655,0.625,0.642,0.403,0.617,0.4,0.335,0.509,0.521,0.506,0.3,0.229
COR-L23,0.696,0.676,0.41,0.159,0.0747,0.193,0.188,0.197,0.203,0.182,0.186,0.196,0.201,0.0763,0.0792,0.163,0.182,0.148,0.1,0.0908
SK-MES-1,0.96,1.01,0.903,0.422,0.133,1.02,0.904,0.874,0.776,0.292,0.956,1.02,0.915,0.211,0.167,0.881,0.912,0.656,0.177,0.13
NCI-H2085,0.859,0.831,0.753,0.343,0.266,0.886,1,0.705,0.709,0.298,0.827,0.873,0.991,0.403,0.206,0.823,0.749,0.629,0.424,0.433
NCI-H2087,0.968,0.58,0.769,0.567,0.179,0.623,0.675,0.688,0.674,0.473,0.626,0.761,0.63,0.0855,0.0402,0.229,0.238,0.195,0.162,0.11
HCC-366,0.6,0.628,0.357,0.0171,0.01,0.152,0.172,0.114,0.223,0.309,0.149,0.173,0.207,0.149,0.0543,0.0833,0.0907,0.0487,0.032,0.0245
NCI-H2126,1.01,1,0.994,0.916,0.529,0.661,0.62,0.703,0.704,0.649,0.648,0.695,0.707,0.61,0.536,0.844,0.907,0.837,0.501,0.236
SK-LU-1,1.01,0.792,0.725,0.274,0.137,0.861,0.984,0.937,0.759,0.415,0.911,0.984,0.704,0.188,0.161,0.347,0.313,0.304,0.156,0.0914
